Reference: ChEMBL document CHEMBL1201862, “PubChem BioAssay data set” (2004)
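These data come from cells grown in 96-well plates and exposed to compound for 48 hours at five concentrations. GI50 marks 50% less growth.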 Activity calls are given as the source filed them. Cut-off read from the data, not from the text of the source: active = GI50 up to about 1.1 µM and inactive = higher.

Tests used:
Assay in all cases: DTP human tumour cell line panel, 48 h
NCI-H226 = system: NCI-H226
UACC-257 = system: UACC-257
SK-OV-3 = system: SK-OV-3
Malme-3M = system: Malme-3M
SN12C = system: SN12C
CAKI-1 = system: CAKI-1
NCI-H522 = system: NCI-H522
A549 = system: A549
OVCAR-3 = system: OVCAR-3
OVCAR-8 = system: OVCAR-8
SNB-75 = system: SNB-75
K562 = system: K562
M14 = system: M14
HL-60 = system: HL-60
COLO 205 = system: COLO 205
CCRF-CEM = system: CCRF-CEM
SW-620 = system: SW-620
EKVX = system: EKVX
SF-295 = system: SF-295
RPMI-8226 = system: RPMI-8226

CC1(C)OC[C@H](C(=N)OCc2ccccc2)O1
GI50 (NCI-H226): 19.3 µM (inactive)
GI50 (UACC-257): > 100 µM (inactive)
GI50 (SK-OV-3): > 100 µM (inactive)
GI50 (Malme-3M): > 100 µM (inactive)
GI50 (SN12C): > 100 µM (inactive)
GI50 (CAKI-1): > 100 µM (inactive)
GI50 (NCI-H522): > 100 µM (inactive)
GI50 (A549): > 100 µM (inactive)
GI50 (OVCAR-3): > 100 µM (inactive)
GI50 (OVCAR-8): > 100 µM (inactive)
GI50 (SNB-75): > 100 µM (inactive)
GI50 (K562): > 100 µM (inactive)
GI50 (M14): > 100 µM (inactive)
GI50 (HL-60): > 100 µM (inactive)
GI50 (COLO 205): > 100 µM (inactive)
GI50 (CCRF-CEM): > 100 µM (inactive)
GI50 (SW-620): > 100 µM (inactive)
GI50 (EKVX): > 100 µM (inactive)
GI50 (SF-295): > 100 µM (inactive)
GI50 (RPMI-8226): > 100 µM (inactive)

O=S1(=O)OCCOS(=O)(=O)C1Cc1cccc2ccccc12
GI50 (NCI-H226): 7.83 µM (inactive)
GI50 (UACC-257): 14.1 µM (inactive)
GI50 (SK-OV-3): 27.5 µM (inactive)
GI50 (Malme-3M): 16.1 µM (inactive)
GI50 (SN12C): 20.6 µM (inactive)
GI50 (CAKI-1): 32.6 µM (inactive)
GI50 (NCI-H522): 18.9 µM (inactive)
GI50 (A549): 35.2 µM (inactive)
GI50 (OVCAR-8): 17.7 µM (inactive)
GI50 (SNB-75): 29.6 µM (inactive)
GI50 (K562): 15.6 µM (inactive)
GI50 (M14): 20.7 µM (inactive)
GI50 (HL-60): 11.6 µM (inactive)
GI50 (COLO 205): 13.9 µM (inactive)
GI50 (CCRF-CEM): 14.2 µM (inactive)
GI50 (SW-620): 30.6 µM (inactive)
GI50 (EKVX): 30.3 µM (inactive)
GI50 (SF-295): 32.3 µM (inactive)
GI50 (RPMI-8226): 39.4 µM (inactive)

CC1=C(SCCO)C(=O)c2ccccc2C1=O
GI50 (NCI-H226): 14.7 µM (inactive)
GI50 (UACC-257): 13 µM (inactive)
GI50 (SK-OV-3): 16 µM (inactive)
GI50 (Malme-3M): 14.2 µM (inactive)
GI50 (SN12C): 15.6 µM (inactive)
GI50 (CAKI-1): 14.9 µM (inactive)
GI50 (NCI-H522): 3.72 µM (inactive)
GI50 (A549): 15.9 µM (inactive)
GI50 (OVCAR-3): 2.82 µM (inactive)
GI50 (OVCAR-8): 12.4 µM (inactive)
GI50 (SNB-75): 16.5 µM (inactive)
GI50 (K562): 3.18 µM (inactive)
GI50 (M14): 14.3 µM (inactive)
GI50 (HL-60): 0.55 µM (active)
GI50 (COLO 205): 11.1 µM (inactive)
GI50 (CCRF-CEM): 1.82 µM (inactive)
GI50 (SW-620): 12.2 µM (inactive)
GI50 (EKVX): 8.41 µM (inactive)
GI50 (SF-295): 17.2 µM (inactive)
GI50 (RPMI-8226): 2.55 µM (inactive)

O=Cc1ccc2c(c1I)OCO2
GI50 (NCI-H226): > 100 µM (inactive)
GI50 (UACC-257): > 100 µM (inactive)
GI50 (SK-OV-3): > 100 µM (inactive)
GI50 (Malme-3M): > 100 µM (inactive)
GI50 (SN12C): > 100 µM (inactive)
GI50 (CAKI-1): > 100 µM (inactive)
GI50 (NCI-H522): > 100 µM (inactive)
GI50 (A549): > 100 µM (inactive)
GI50 (OVCAR-3): > 100 µM (inactive)
GI50 (OVCAR-8): > 100 µM (inactive)
GI50 (SNB-75): > 100 µM (inactive)
GI50 (K562): > 100 µM (inactive)
GI50 (M14): > 100 µM (inactive)
GI50 (HL-60): > 100 µM (inactive)
GI50 (COLO 205): > 100 µM (inactive)
GI50 (CCRF-CEM): > 100 µM (inactive)
GI50 (SW-620): > 100 µM (inactive)
GI50 (EKVX): > 100 µM (inactive)
GI50 (SF-295): > 100 µM (inactive)
GI50 (RPMI-8226): > 100 µM (inactive)

O=C1OC(CN2CCOCC2)CN1/N=C/c1ccc([N+](=O)[O-])o1 (stereo not drawn) [FURALTADONE]
GI50 (NCI-H226): 39.1 µM (inactive)
GI50 (UACC-257): 35.7 µM (inactive)
GI50 (SK-OV-3): 74.6 µM (inactive)
GI50 (Malme-3M): 22.7 µM (inactive)
GI50 (SN12C): 28.7 µM (inactive)
GI50 (CAKI-1): 38.5 µM (inactive)
GI50 (NCI-H522): 26 µM (inactive)
GI50 (A549): 50.9 µM (inactive)
GI50 (OVCAR-3): 21.9 µM (inactive)
GI50 (OVCAR-8): 45.8 µM (inactive)
GI50 (SNB-75): > 100 µM (inactive)
GI50 (K562): 70 µM (inactive)
GI50 (M14): 20.7 µM (inactive)
GI50 (HL-60): 48.8 µM (inactive)
GI50 (COLO 205): 27.5 µM (inactive)
GI50 (CCRF-CEM): 53 µM (inactive)
GI50 (SW-620): 50.7 µM (inactive)
GI50 (EKVX): 63.7 µM (inactive)
GI50 (SF-295): 34.9 µM (inactive)
GI50 (RPMI-8226): 24.2 µM (inactive)

CC(C)(C)c1cc(C(=O)/C=C/c2ccc3c(c2)OCO3)cc(C(C)(C)C)c1O
GI50 (NCI-H226): 15.2 µM (inactive)
GI50 (UACC-257): 2.95 µM (inactive)
GI50 (SK-OV-3): 15.8 µM (inactive)
GI50 (Malme-3M): 32.4 µM (inactive)
GI50 (SN12C): 10.1 µM (inactive)
GI50 (CAKI-1): 9.29 µM (inactive)
GI50 (NCI-H522): 11.9 µM (inactive)
GI50 (A549): 9.64 µM (inactive)
GI50 (OVCAR-3): 4.53 µM (inactive)
GI50 (OVCAR-8): 13.6 µM (inactive)
GI50 (SNB-75): 3.2 µM (inactive)
GI50 (K562): 5.24 µM (inactive)
GI50 (M14): 8.11 µM (inactive)
GI50 (HL-60): 3.07 µM (inactive)
GI50 (COLO 205): 5.61 µM (inactive)
GI50 (CCRF-CEM): 3.48 µM (inactive)
GI50 (SW-620): 5.96 µM (inactive)
GI50 (EKVX): 21.9 µM (inactive)
GI50 (SF-295): 5.7 µM (inactive)
GI50 (RPMI-8226): 4.39 µM (inactive)

CCOC(=O)CCc1c(C)c2c(O)cc(O)cc2oc1=O
GI50 (NCI-H226): > 87.9 µM (inactive)
GI50 (UACC-257): > 100 µM (inactive)
GI50 (SK-OV-3): > 100 µM (inactive)
GI50 (Malme-3M): > 100 µM (inactive)
GI50 (SN12C): > 100 µM (inactive)
GI50 (CAKI-1): > 100 µM (inactive)
GI50 (NCI-H522): > 100 µM (inactive)
GI50 (A549): > 100 µM (inactive)
GI50 (OVCAR-3): > 100 µM (inactive)
GI50 (OVCAR-8): > 100 µM (inactive)
GI50 (SNB-75): > 100 µM (inactive)
GI50 (K562): > 100 µM (inactive)
GI50 (HL-60): 42.1 µM (inactive)
GI50 (COLO 205): > 100 µM (inactive)
GI50 (CCRF-CEM): 26 µM (inactive)
GI50 (SW-620): > 100 µM (inactive)
GI50 (EKVX): > 100 µM (inactive)
GI50 (SF-295): > 68.9 µM (inactive)
GI50 (RPMI-8226): > 100 µM (inactive)
